Data as given in US20070238755A1, “Methods to treat and/or prevent radiation- and/or chemical-induced toxicity in non-malignant tissue” (priority 2005, published 2007).

What was measured:
Type in all cases: in vivo, male Sprague-Dawley rats
[1] = system: irradiated rats (locally irradiated scrotal hernia containing a loop of distal ileum); test: Structural radiation injury (Radiation Injury Score) in the scrotal hernia intestinal fibrosis model, Experiment 1; conditions: 10 or 15 mg/kg/day s.c. for 24 days (Day -1 to Day 23); 5 Gy for 9 days; compared to vehicle; p=0.003 Jonckheere-Terpstra test; FIG. 1
From the text: (§1) A particularly relevant animal model for radiation toxicity is described in Wang et al., J Thromb Haemost, 2(11):2027-2035 (2004)). In brief, a “scrotal hernia” containing a 4 cm loop of distal ileum is surgically created in male Sprague-Dawley rats. After a 3 week recovery period, the scrotal hernia is irradiated locally without exposing the rest of the animal to ionizing radiation.
(§2) Scrotal hernias were created in rats which subsequently received one of three different treatments subcutaneously: (i) vehicle control (i.e., 0.4% methyl cellulose); (ii) 10 mg/kg/day of Formula 2; and (iii) 15 mg/kg/day of Formula 2. […] After an additional 2 week observation period following treatment, the rats were euthanized and assessed for radiation toxicity using these endpoints: structural radiation injury, immunohistochemistry (e.g., neutrophil infiltration, collagen type III deposition, smooth muscle cell proliferation, extracellular matrix-associated TGF-β immunoreactivity, collagen type I deposition, macrophages (ED-2)), and morphomety.
Structural radiation injury was assessed in hematoxylin-eosin-stained sections using a radiation injury score system previously described (see, Langberg et al., Acta Oncol, 31(7):781-787 (1992); and Hauer-Jensen et al., Acta Radiol Oncol, 22(4):299-303 (1983)). […]

[2] = system: irradiated rats (locally irradiated scrotal hernia containing a loop of distal ileum); test: Quantitative immunohistochemistry of irradiated intestine, intestinal fibrosis Experiment 1
From the text: as §1
Scrotal hernias were created in rats which subsequently received one of three different treatments subcutaneously: (i) vehicle control (i.e., 0.4% methyl cellulose); (ii) 10 mg/kg/day of Formula 2; and (iii) 15 mg/kg/day of Formula 2. The treatments were administered for 24 days total, starting the day before irradiation (i.e., from Day-1 to Day 23). Beginning on Day 1, the scrotal hernia of each animal was irradiated locally by exposure to 5 Gy for 9 days. After an additional 2 week observation period following treatment, the rats were euthanized and assessed for radiation toxicity using these endpoints: structural radiation injury, immunohistochemistry (e.g., neutrophil infiltration, collagen type III deposition, smooth muscle cell proliferation, extracellular matrix-associated TGF-β immunoreactivity, collagen type I deposition, macrophages (ED-2)), and morphomety.
Quantitative immunohistochemistry was used to determine: (i) neutrophil infiltration by mycloperoxidase stalninig; (ii) intestinal smooth muscle cell proliferation using proliferation cell nuclear antigen (PCNA) labeling index; (iii) collagen deposition by staining for collagen types I and III; (iv) extracellular matrix-associated transforming growth factor (TGF)-β, and (v) macrophage ED-2. Immunohistochemical staining was performed with appropriate positive and negative controls using the avidin-biotin complex (ABC) technique previously described by Wang et al., J Thromb Haemost, 2(11):2027-2035 (2004). Primary antibodies, catalog numbers, incubation times, dilutions, and companies were: polyclonal antimyeloperoxidase antibody (A0398, 2 h, 1:100; Dako, Carpinteria, Calif., USA); monoclonal anti-PCNA antibody (NA03, 2 h, 1:100; Calbiochem, Cambridge, Mass., USA); polyclonal antibodies against collagen type I (1310-01, 2 h, 1:100 dilution; Southern Biotechnology Associates, Birmingham, Alab., USA); collagen type III (1330-01, 2 h, 1:100 dilution, Southern Biotechnology Associates); polyclonal rabbit anti-TGF-P antibody (AB-100-NA, 2 h, 1:300 dilution; R&D, Minneapolis, Minn., USA); and ED-2 (MCA342, 2 h, 1:100 dilution, Serotec, Rahway, N.C., USA).
Computerized image analysis was performed as previously described (see, Wang et al., Thromb Haemost, 87(1):122-128(2002); Wang et al., J Pharmacol Exp Ther, 297(1):35-42 (2001)). Neutrophil infiltration was assayed by identifying myeloperoxidase-positive cells as previously described (see, Wang et al., Thromb Haemost, 87(1):122-128(2002)). Areas positive for collagen types I and III deposition were measured as previously described 'see, Raviv et al., World J Urol, 15(l1):50-55 (1997); and Wang et al., Thromb Haemost, 87(1):122-128(2002)). Extracellular matrix-associated TGF-β immunoreactivity was measured as previously described (see, Richter et al., Radiother Oncol, 39(3):243-251 (1996)).
Differences in endpoints as a function of drug treatment (PAR-1 inhibitor vs. vehicle) were assessed using fixed-factor analysis of variance and post hoc comparisons with Newman-Keul's test (NCSS2000 for Windows 95, NCSS, Kaysville, Utah, USA). Univariate comparisons were performed with the Mann-Whitney U-test using StatXact 5 (Cytel Software, Cambridge, Mass., USA), a software package for exact non-parametric inference.

[3] = system: irradiated rats (locally irradiated scrotal hernia containing a loop of distal ileum); test: Morphometry of irradiated intestine, intestinal fibrosis Experiment 1; conditions: trend is worded for vehicle-treated animals as compared to Formula 2-treated animals
From the text: as §1
as §2, with “2. The treatments were administered for 24 days total, starting the day before irradiation (i.e., from Day-1 to Day 23).” for “2.”
The thickness of the intestinal wall proper (submucosa, muscularis externa, and subserosa, but excluding the mucosa) was measured with an eyepiece linear microruler. […]

[4] = trend is worded for vehicle-treated animals as compared to Formula 2-treated animals, p=0.4 Jonckheere-Terpstra test

## CCOC(=O)N[C@@H]1CC[C@@H]2[C@@H](C1)C[C@H]1C(=O)O[C@H](C)[C@H]1[C@H]2/C=C/c1ccc(-c2ccccn2)cn1 [Formula 2]
[1]
  structural radiation injury as measured by Radiation Injury Score: less
[2]; 10 or 15 mg/kg/day s.c. for 24 days, 5 Gy for 9 days, compared to vehicle, p=0.005 Jonckheere-Terpstra test, FIG. 3
  collagen type III deposition: reduced
[2]; 10 or 15 mg/kg/day s.c. for 24 days, 5 Gy for 9 days, compared to vehicle, p=0.04 Jonckheere-Terpstra test, FIG. 4
  smooth muscle cell proliferation (PCNA positive cells): reduced
[2]; 10 or 15 mg/kg/day s.c. for 24 days, 5 Gy for 9 days, compared to vehicle, p=0.05 Jonckheere-Terpstra test, FIG. 2
  neutrophil infiltration (myeloperoxidase-positive cells): reduced
[2]; trend is worded for vehicle-treated animals as compared to Formula 2-treated animals, p=0.1 Jonckheere-Terpstra test
  extracellular matrix-associated TGF-β immunoreactivity: trend toward increased levels
[2]; [4]
  collagen type I deposition: trend toward increased levels
  macrophages (ED-2): trend toward increased levels
[3]; p=0.2 Jonckheere-Terpstra test
  intestinal wall thickening (thickness of the intestinal wall proper): trend toward intestinal wall thickening in vehicle-treated animals
[3]; p=0.3 Jonckheere-Terpstra test
  serosal thickening: trend toward serosal thickening in vehicle-treated animals
